# Measured values from patent publication US7498292B2, “Combinatorial libraries of autoinducer analogs, autoinducer agonists and antagonists, and methods of use thereof” (The Research Foundation of State University of New York, priority 2002, dated 2009).
# “Also recorded” adds a separate entry of the source.
# What was measured:
# LasR [1] = target: T1, LasR (Pseudomonas aeruginosa, UniProt P25084); assay: lasI-gfp reporter antagonist (competition against AI1) assay, PAO-JP2 (plasI-LVAgfp); type: cell-based, P. aeruginosa; conditions: 100-fold excess concentration over AI1 (1 μM AI1)
# T1 construct: endogenous in cells; host or cells: P. aeruginosa PAO-JP2 (lasI, rhlI) harboring plasI-LVAgfp
# Procedure: (§1) P. aeruginosa strain PAO-JP2 (lasI, rhlI) (Rahme et al., Science 268:1899-1902 (1995), which is hereby incorporated by reference in its entirety) harboring plasI-LVAgfp (Pearson et al., Proc. Natl Acad. Sci. USA 91:197-201 (1994), which is hereby incorporated by reference in its entirety) was grown at 37° C. in LB with 300 μg/ml carbenicillin. For agonist assays, an overnight culture was diluted to an OD600 of 0.1 and transferred to wells of a 96-well plate on which test compounds had previously been added and dried. The final concentration of each analog tested was roughly 400 μM, although this is an overestimate due to purity issues. Cells were then incubated for 6 hours at 37° C. with vigorous shaking. GFP expression was detected with a Molecular Imager (BioRad) (488 nm excitation and 695 nm bandpass filter) and quantified with ImageQuant software. The OD600 of cultures was determined to normalize GFP expression to cell density.
# The methods were the same as described in Example 2 (GFP Reporter Assay), except that 1 μM AI1 was added to each well in combination with the library compound. The fluorescence/OD600 of each compound competing against AI1 was reported relative to the fluorescence/OD600 of the positive control of AI1 alone, which was set to 1. When strain PAO-JP2 (prhlI-LVAgfp) was used, the positive control was 1 μM AI1 and 10 μM AI2. Eight compounds that inhibited reporter gene expression by greater than 50% were identified (see, e.g., FIG. 6).
# (§2) Reporter strains were grown overnight in LB plus 300 μg/ml carbenicillin at 37° C. and diluted to an OD600 of 0.1. Following an incubation of 1 hour, 200 μl of cell culture was added to individual wells of a 96 well plate containing appropriate amount of test compound(s). Plates were incubated for 6 hours and then scanned for fluorescence emission with a Molecular Imager (488 nm excitation and 695 nm bandpass filter). Fluorescence was quantified with ImageQuant software.
# Elastase B [2] = assay: elastase (Elastin Congo Red) assay, strain PAO-JP2; type: cell-based, P. aeruginosa PAO-JP2; conditions: PAO-JP2, 5 μM AI1 and 10 μM AI2
# Procedure: (§3) Pyocyanin, elastase, and biofilm were assayed as previously described (Smith et al., Chem. Biol. 10:81-89 (2003), which is hereby incorporated by reference in its entirety). Elastase activity produced by P. aeruginosa in the presence of AIs and competing 3-oxo-C12-D10 was determined by measuring breakdown of the substrate Elastin Congo Red.
# (§4) For the elastase B assay, cells (PAO-JP2) were grown overnight in PTSB media (5% Peptone, 0.1% Tryptic Soy Broth) at 37° C., washed and diluted to an OD600 of 0.05, grown to mid-log phase, washed again, and re-suspended to an OD600 of 0.05. The culture was then added to test tubes containing test compound(s) and grown for 6 hours. Elastase B activity was quantified by incubation of 100 μl of filtered culture supernatant with 5 mg Elastin Congo Red substrate and 1 ml of 10 mM Tris pH 7.2, 1 mM CaCl2 for 6 hours at 37° C. with agitation. Elastase B activity is represented by the OD495 of the enzyme assay following reaction quenching with EDTA and centrifugation to remove unreacted substrate, divided by the OD600 of the cell culture. The same assay was run with strain PAO-1, however no exogenous autoinducers were added.
# Elastase B [3] = assay: elastase (Elastin Congo Red) assay, wild type strain PAO1; type: cell-based, P. aeruginosa PAO1; conditions: wild type PAO1, no exogenous autoinducers
# Procedure: as §3, §4
# pyocyanin [4] = assay: pyocyanin assay, strain PAO-JP2; type: cell-based, P. aeruginosa PAO-JP2; conditions: PAO-JP2, 25 μM each of AI1 and AI2; not concentration dependent over the range tested
# Procedure: (§5) For the pyocyanin assay, cells were grown overnight in LB then washed in fresh media and diluted to an OD600 of 0.05. This culture was grown for 3-4 hours to mid-log phase (OD600 of 0.3-0.5), then diluted to an OD600 of 0.05, and aliquoted to test tubes containing an appropriate amount of test compound(s). Following 18 hours of growth, pyocyanin was extracted from filtered culture supernatants and quantified using standard methods (Essar et al., J. Bacteriol. 172:884-900 (1990), which is hereby incorporated by reference in its entirety).
# pyocyanin [5] = assay: pyocyanin assay, wild type strain PAO1; type: cell-based, P. aeruginosa PAO1; conditions: wild type PAO1, no AIs added
# Procedure: as §5
# P. aeruginosa = assay: cell growth in the reporter assay; type: cell-based; conditions: concentrations up to 400 μM
# Procedure: Based on the above hypothesis, a competition assay of 2 and 3 against AI1, using strain PAO-JP2 (plasI-LVAgfp), was performed. […] It should be noted that this inhibition experiment was performed with competition against 1 μM AI1, a concentration typically produced by wild type P. aeruginosa (Pearson et al., Proc. Natl Acad. Sci. USA 92:1490-1494 (1995), which is hereby incorporated by reference in its entirety). […] It should also be noted that cell growth was not affected by the addition of 2 or 3 at concentrations up to 400 μM. Thus, it appears that compounds 2 and 3 act as specific inhibitors of QS controlled promoters. Compound 6 was also tested for its ability to compete against AI2, but no inhibition of the rhlI-gfp reporter gene was seen.
# LasR [6] = target: T1, LasR; assay: lasI-gfp reporter agonist assay, PAO-JP2 (plasI-LVAgfp); type: cell-based, P. aeruginosa; conditions: PAO-JP2 (plasI-LVAgfp), compounds made in solution phase, increasing concentrations (1, 100, 400 μM)
# Source text: Since this strain lacks the ability to produce natural AIs due to disruption of both AI synthase genes, activation of LasR relies on the addition of exogenous AI1. Expression of gfp (encoding green fluorescent protein) is under control of the LasR-AI1 inducible lasI promoter, allowing rapid screening for LasR agonists by measuring the level of GFP expression in their presence.
# as §1, §2
# RhlR [7] = assay: rhlI-gfp reporter antagonist assay, PAO-JP2 (prhlI-LVAgfp); type: cell-based, P. aeruginosa; conditions: competing against 1 μM AI1 and 10 μM AI2
# Procedure: Each compound in the library was tested for antagonist activity using the same reporter strain, PAO-JP2 (plasI-LVAgfp) (de Kievit et al., Appl. Environ. Microbiol. 67:865-1873 (2001), which is hereby incorporated by reference in its entirety) to find compounds that could compete against AI1 and reduce GFP expression. The methods were the same as described in Example 2 (GFP Reporter Assay), except that 1 μM AI1 was added to each well in combination with the library compound. The fluorescence/OD600 of each compound competing against AI1 was reported relative to the fluorescence/OD600 of the positive control of AI1 alone, which was set to 1. When strain PAO-JP2 (prhlI-LVAgfp) was used, the positive control was 1 μM AI1 and 10 μM AI2.
# 3- oxo-C12-D10 was synthesized in solution phase, where the natural side chain was coupled with D10 and purified by chromatography. To determine if the same structural motif can be applied to inhibition of the RhlR-AI2 interaction, C4-D10 was also synthesized. Assays were performed with both the lasI-gfp reporter PAO-JP2 (plasI-LVAgfp) and an RhlR-AI2 controlled rhlI-gfp reporter, PAO-JP2 (prhlI-LVAgfp) (FIGS. 10A-C) (de Kievit et al., Appl. Environ. Microbiol. 67:865-1873 (2001), which is hereby incorporated by reference in its entirety).
# as §2
# Next the ability of 2 and 3 to inhibit the rhlI-gfp reporter strain PAO-JP2 (prhlI-LVAgfp) was tested, since this expression is also AI1-dependent.
# lac promoter = assay: GFP expression from lac promoter, PAO-JP2 (pTdK-GFP) (specificity control); type: cell-based, P. aeruginosa; conditions: lasI promoter replaced with a lac promoter
# LasR [8] = target: T1, LasR; assay: lasB-lacZ reporter assay, E. coli MG4 (pKDT37); type: cell-based, P. aeruginosa; conditions: E. coli MG4 (pKDT37), 6 hour incubation
# Procedure: E. coli strain MG4 (pKDT37) was grown overnight in Supplemented A media with 100 μg/mL ampicillin at 30° C. and diluted 1:100 in the same media. 1 mL of this culture was added to a test tube containing AI1 or 3-oxo-C12-D12 that had been previously aliquoted and dried. Following a 6 hour incubation at 30° C., β-galactosidase activity was determined using standard methods (Platt et al., Assays of the lac operon Enzymes In: Experiments in Molecular Genetics, Cold Spring Harbor Laboratory Press, Cold Spring Harbor, N.Y., pp. 352-355 (1972), which is hereby incorporated by reference in its entirety).
# One of the new agonist structures identified from the library, D12, is 2-aminocyclohexanol (FIG. 5B). […] 3-oxo-C12-D12, containing the natural side chain, was synthesized in solution phase, and tested with both the lasI-gfp reporter as well as a lasB-lacZ reporter in Escherichia coli. E. coli strain MG4 harboring plasmid pKDT37 expresses lasR and contains a lacZ reporter gene controlled by a LasR-AI1 inducible lasB promoter (Passador et al., J. Bacteriol. 178:5995-6000 (1996), which is hereby incorporated by reference in its entirety). […] It also provides strong evidence that the agonist activity in P. aeruginosa is LasR dependent.
# RhlR [9] = target: T2, RhlR (Pseudomonas aeruginosa, UniProt P54292); conditions: 4-fold excess, in E. coli; cited from earlier work
# T2 construct: an RhlR-AI2 controlled rhlI-gfp reporter, PAO-JP2 (prhlI-LVAgfp); endogenous in cells; host or cells: P. aeruginosa PAO-JP2 (prhlI-LVAgfp)
# lasB promoter = conditions: 320 μM furanone competing with 0.1 μM AI1; cited from earlier work
# T1 sequence (P25084 whole entry): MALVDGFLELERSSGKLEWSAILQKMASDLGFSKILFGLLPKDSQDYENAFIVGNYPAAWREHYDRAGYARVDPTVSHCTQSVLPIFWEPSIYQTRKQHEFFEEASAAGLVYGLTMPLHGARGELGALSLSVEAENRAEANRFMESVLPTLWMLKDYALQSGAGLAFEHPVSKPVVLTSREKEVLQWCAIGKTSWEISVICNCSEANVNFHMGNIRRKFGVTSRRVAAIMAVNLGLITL
# T2 sequence (P54292 whole entry): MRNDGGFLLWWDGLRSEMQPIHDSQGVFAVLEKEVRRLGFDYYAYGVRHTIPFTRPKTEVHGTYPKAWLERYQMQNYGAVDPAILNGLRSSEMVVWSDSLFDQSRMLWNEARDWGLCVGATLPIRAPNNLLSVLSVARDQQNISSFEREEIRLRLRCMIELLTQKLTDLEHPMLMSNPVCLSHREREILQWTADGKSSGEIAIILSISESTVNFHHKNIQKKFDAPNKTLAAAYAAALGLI
smiles,measurement,setting,value
"CCCCCCCCCC(=O)CC(=O)N[C@@H]1CCC[C@H]1O (racemic) [Compound 2, N-(trans-2-hydroxycyclopentyl)-3-oxododecanamide]",inhibition of GFP expression (lasI-gfp),LasR [1],approximately 70%
same,effect on elastase activity,Elastase B [2],no significant effect
same,effect on elastase activity,Elastase B [3],no significant effect
same,reduction of pyocyanin expression,pyocyanin [4],50%
same,effect on pyocyanin production,pyocyanin [5],no significant effect
same,effect on cell growth,P. aeruginosa,not affected
"CCCCCCCCCC(=O)CC(=O)N[C@@H]1CCC[C@H]1O (relative stereo) [Compound 2, N-(trans-2-hydroxycyclopentyl)-3-oxododecanamide]",agonist activity (induction of lasI-gfp reporter),LasR [6],nearly unable to induce the reporter
same,antagonist activity on rhlI-gfp reporter,RhlR [7],no antagonist activity
same,inhibition of GFP expression from lac promoter,lac promoter,inability to inhibit GFP expression
"CCCCCCCCCC(=O)CC(=O)N[C@H]1CCOC1=O [AI1, N-(3-oxododecanoyl)-L-homoserine lactone, reference compound]",agonist activity (induction of lasI-gfp reporter),LasR [6],activated; also recorded: Strong QS induction
same,lasB-lacZ reporter activation (beta-galactosidase activity),LasR [8],activated
same,reduction of binding of AI2 to RhlR,RhlR [9],86%
O=C1C=C(Br)/C(=C/Br)O1 [furanone],inhibition (antagonist activity),lasB promoter,Approximately 50%
